Measured values from patent US5430062A, “Stilbene derivatives as anticancer agents” (priority 1993, dated 1995).
Read-outs that look alike come from different tables or passages of the source.

Columns and labels:
A-549 lung carcinoma = assay: MTT cytotoxicity assay, A-549; conditions: for IC50: Homo sapiens, A549, […], read-out: Cytotoxicity ED50, A-549
SKMEL-5 melanoma = assay: MTT cytotoxicity assay, SKMEL-5; conditions: for IC50: Homo sapiens, SK-MEL-5, […], read-out: Cytotoxicity ED50, SKMEL-5
[1] = test system: HT-29 colon adenocarcinoma; assay: MTT cytotoxicity assay, HT-29; conditions: for IC50: Homo sapiens, HT-29, […], read-out: Cytotoxicity ED50, HT-29
MCF-7 breast carcinoma = assay: MTT cytotoxicity assay, MCF-7; conditions: for IC50: Homo sapiens, MCF7, […], read-out: Cytotoxicity ED50, MCF-7
[2] = test system: five cancer cell cultures; assay: MTT cytotoxicity assay, five cancer cell cultures taken together; conditions: for cytotoxicity (in words): five cancer cell lines
MLM melanoma = assay: MTT cytotoxicity assay, MLM; conditions: for IC50: read-out: Cytotoxicity ED50, MLM
tubulin = assay: Inhibition of tubulin polymerization (turbidimetry); format: biochemical, bovine; conditions: second series (Tables V-VII, IX); read-out: Inhibition of Tubulin Polymerization IC50 (±S.D.)
[3] = read-out: cytotoxicity ED50, five cancer cell lines

SMILES	IC50 (tubulin) [µM]	IC50 (A-549 lung carcinoma) [µM]	IC50 (SKMEL-5 melanoma) [µM]	IC50 [1] [µM]	IC50 (MCF-7 breast carcinoma) [µM]	IC50 [2, 3] [µM]	IC50 (MLM melanoma) [µM]	cytotoxicity (in words) [2]	IC50 ([2]; read-out: cytotoxicity ED50) [µM]	IC50 ([2]; read-out: cytotoxicity ED50, in at least three cell lines) [µM]	IC50 ([2]; read-out: cytotoxicity ED50, in at least four cell lines) [µM]	cytotoxicity relative to parent (in words) (A-549 lung carcinoma; A-549)	cytotoxicity relative to 5a (in words) (SKMEL-5 melanoma; SKMEL-5 cells)	cytotoxicity relative to 5a (in words) ([1]; HT-29 cells)	cytotoxicity relative to 5a (in words) (MCF-7 breast carcinoma; MCF cell culture)	cytotoxicity relative to parent (in words) (MLM melanoma; MLM)
COc1cc(/C=C\c2ccncc2)cc(OC)c1OC [5i, (Z)-1-(4-Pyridyl)-2-(3,4,5-trimethoxyphenyl)ethene]		14.2	14.4	12.9	17	> 10	> 25									
COc1cc(/C=C\c2cccnc2)cc(OC)c1OC [5j, (Z)-1-(3-Pyridyl)-2-(3,4,5-trimethoxyphenyl)ethene]		13.7	6	9.8	14.7	> 10	> 25									
COc1cc(/C=C\c2ccccn2)cc(OC)c1OC [5k, (Z)-1-(2-Pyridyl)-2-(3,4,5-trimethoxyphenyl)ethene]		> 25	> 25	> 25	> 25	> 10	> 25									
COc1cc(/C=C\c2ccc([N+](=O)[O-])cc2)cc(OC)c1OC [5l, (Z)-1-(4-Nitrophenyl)-2-(3,4,5-trimethoxyphenyl)ethene]		> 25	> 25	> 25	> 25		> 25	decreased the activity drastically								
COc1cc(/C=C\c2ccc(O[Si](C)(C)C(C)(C)C)cc2)cc(OC)c1OC [5m, (Z)-1-[(4-t-Butyldimethylsilyloxy)phenyl]-2-(3,4,5-trimethoxyphenyl)ethene]		11	7.59	10.6	7.29		17.2	decreased the activity drastically								
COc1ccc(/C=C\c2ccc(OC)c(OC)c2)cc1 [15h, (Z)-(4-Methoxyphenyl)-2-(3,4-dimethoxyphenyl)ethene]		> 25	> 25	> 25	> 25	> 25	> 25									
COc1ccc(/C=C\c2cc(OC)cc(OC)c2)cc1 [15i, (Z)-1-(3,5-Dimethoxyphenyl)-2-(4-methoxyphenyl)ethene]	3.8	0.13	0.42	0.34	0.16		0.098		~0.1							
CCOc1ccc(/C=C/c2cc(OC)c(OC)c(OC)c2)cc1 [16a]		0.17	1.17	1.49	0.75		0.22		~0.1							
COc1cc(/C=C/c2ccc(SC)cc2)cc(OC)c1OC [16c]		0.47	0.28	0.083	0.059		7.3			~0.1						
COc1cc(/C=C/c2ccc(C(C)C)cc2)cc(OC)c1OC [16f, (E)-[4-(2-Propyl)phenyl]-2-(3,4,5-trimethoxyphenyl)ethene]		9.8	11.1	6.8	18.4		> 25		~0.1							
COc1cc(/C=C\c2ccc(O)cc2)cc(OC)c1OC [compound 5o, (Z)-1-(4-Hydroxyphenyl)-2-(3,4,5-trimethoxyphenyl)ethene]		12.7	2.27	1.75	5.7		12.6	decreased the activity drastically								
COc1cc(/C=C\c2ccc(C(C)C)cc2)cc(OC)c1OC [compound 15f, (Z)-[4-(2-Propyl)phenyl]-2-(3,4,5-trimethoxyphenyl)ethene]		0.0066	0.00047	0.0024	0.0014		0.07		0.00047 to 0.07							
COc1ccc(Cc2cc(OC)c(OC)c(OC)c2)cc1 [compound 29, 4-Methoxyphenyl-(3,4,5-trimethoxyphenyl)methane]	15	0.15	0.012	0.013	0.019		0.13									
COc1ccc(C(Cc2cc(OC)c(OC)c(OC)c2)C(=O)O)cc1 (stereo not shown) [compound 33, 2-(4-Methoxyphenyl)-3-(3,4,5-trimethoxyphenyl)propionic acid]	> 40	14.3	7.4	9.4	> 25		> 25									
COc1ccc(C2Cc3cc(OC)c(OC)c(OC)c3C2=O)cc1 (stereo not shown) [compound 34, 2-(4-Methoxyphenyl)-4,5,6-trimethoxyindan-3-one]	> 40	> 25	> 25	> 25	> 25		> 25									
COc1ccc(C2Cc3cc(OC)c(OC)c(OC)c3C2)cc1 (stereo not shown) [compound 35, 2-(4-Methoxyphenyl)-4,5,6-trimethoxyindane]	> 40	> 25	19.5	12.8	> 25		> 25									
COc1ccc(Cc2c3cc(OC)c(OC)c(OC)c3cc[n+]2C)cc1 [compound 37, 1-(4'-Methoxybenzyl)-5,6,7-trimethoxyisoquinoline Methiodide]	> 40	19.5	2.1	20.5	> 25		> 25									
COc1ccc(CC2NCCc3c2cc(OC)c(OC)c3OC)cc1 (stereo not shown) [compound 38, 1-(4'-Methoxybenzyl)-5,6,7-trimethoxy-1,2,3,4-tetrahydroisoquinoline]	> 40	19.3	> 25	20.2	> 25		> 25									
COc1ccc(C(=O)c2nccc3c(OC)c(OC)c(OC)cc23)cc1 [compound 39, 1-(4'-Methoxybenzoyl)-5,6,7-trimethoxyisoquinoline]	> 40	> 25	> 25	> 25	> 25		> 25									
COc1ccc(C(=O)c2c3cc(OC)c(OC)c(OC)c3cc[n+]2C)cc1 [compound 40, 1-(4'-Methoxybenzoyl)-5,6,7-trimethoxyisoquinoline Methiodide]	> 40	> 25	> 25	> 25	> 25		> 25									
COc1ccc(CC2c3cc(OC)c(OC)c(OC)c3CCN2C)cc1 (stereo not shown) [compound 41, 1-(4'-Methoxybenzyl)-5,6,7-trimethoxy-2-methyl-1,2,3,4-tetrahydroisoquinoline]	> 40	11.4	8.8	9.7	22.7		> 25									
COc1ccc2c(c1)CN1CCc3c(cc(OC)c(OC)c3OC)C1C2 (stereo not shown) [compound 48, 5,8,13,13a-Tetrahedro-2,3,4,10-tetramethoxy-6H-dibenzo-(a,g)quinolizine]	> 40	> 25	> 25	> 25	> 25		> 25									

The next lines start with results.

IC50 (tubulin) [µM]	SMILES	IC50 (A-549 lung carcinoma) [µM]	IC50 (SKMEL-5 melanoma) [µM]	IC50 [1] [µM]	IC50 (MCF-7 breast carcinoma) [µM]	IC50 [2, 3] [µM]	IC50 (MLM melanoma) [µM]	cytotoxicity (in words) [2]	IC50 ([2]; read-out: cytotoxicity ED50) [µM]	IC50 ([2]; read-out: cytotoxicity ED50, in at least three cell lines) [µM]	IC50 ([2]; read-out: cytotoxicity ED50, in at least four cell lines) [µM]	cytotoxicity relative to parent (in words) (A-549 lung carcinoma; A-549)	cytotoxicity relative to 5a (in words) (SKMEL-5 melanoma; SKMEL-5 cells)	cytotoxicity relative to 5a (in words) ([1]; HT-29 cells)	cytotoxicity relative to 5a (in words) (MCF-7 breast carcinoma; MCF cell culture)	cytotoxicity relative to parent (in words) (MLM melanoma; MLM)
10	CCOc1ccc(CCc2cc(OC)c(OC)c(OC)c2)cc1 [17a, 1-(4-Ethoxyphenyl)-2-(3,4,5-trimethoxyphenyl)ethane]	0.19	0.17	0.18	0.19		2.7				< 1					
6.2	COc1cc(/C=C\c2ccc(SC)cc2)cc(OC)c1OC [compound 15c, (Z)-1-(4-Methylthiophenyl)-2-(3,4,5-trimethoxyphenyl)ethene]	0.00019	4e-06	1.8e-05	0.0054		0.0033					as cytotoxic as the parent compound	two orders of magnitude more potent	about one order of magnitude more potent	about one order of magnitude less cytotoxic than 5a	as cytotoxic as the parent compound
> 40	COc1cc(/C=C\c2ccc(C(C)(C)C)cc2)cc(OC)c1OC [compound 15g, (Z)-1-(4-t-Butylphenyl)-2-(3,4,5-trimethoxyphenyl)ethene]	1.02	0.21	0.88	1.57		4.32									
> 40	COc1ccc(/C=C(/C(=O)O)c2cc(OC)c(OC)c(OC)c2)cc1 [compound 23a, (E)-3-(4-Methoxyphenyl)-2-(3,4,5-trimethoxyphenyl)-prop-2-enoic acid]	13.9	9.1	8.4	12.8		> 25									
> 40	COc1cccc(/C=C(/C(=O)O)c2cc(OC)c(OC)c(OC)c2)c1 [compound 23b, (E)-3-(3-Methoxyphenyl)-2-(3,4,5-trimethoxyphenyl)-prop-2-enoic acid]	0.025	0.05	0.12	> 25		> 25									
> 40	COC(=O)/C(=C/c1cccc(OC)c1)c1cc(OC)c(OC)c(OC)c1 [compound 24b, (E)-Methyl 3-(3-methoxyphenyl)-2-(3,4,5-trimethoxy-phenyl)-prop-2-enoate]	1.3	1.5	0.7	1.3		15.5									
